Legend:
D4 receptor = molecular target: T1, D4 receptor (Homo sapiens, UniProt P21917); experiment: D4 receptor binding, [3H]-YM 09151-2 displacement; conditions: CHO cell membranes, read-out: K1 (nM) for D4 (CHO cell membranes)
T1 construct: expressed in transfected cells; host or cells: CHO cells
T1 sequence (P21917 1-419): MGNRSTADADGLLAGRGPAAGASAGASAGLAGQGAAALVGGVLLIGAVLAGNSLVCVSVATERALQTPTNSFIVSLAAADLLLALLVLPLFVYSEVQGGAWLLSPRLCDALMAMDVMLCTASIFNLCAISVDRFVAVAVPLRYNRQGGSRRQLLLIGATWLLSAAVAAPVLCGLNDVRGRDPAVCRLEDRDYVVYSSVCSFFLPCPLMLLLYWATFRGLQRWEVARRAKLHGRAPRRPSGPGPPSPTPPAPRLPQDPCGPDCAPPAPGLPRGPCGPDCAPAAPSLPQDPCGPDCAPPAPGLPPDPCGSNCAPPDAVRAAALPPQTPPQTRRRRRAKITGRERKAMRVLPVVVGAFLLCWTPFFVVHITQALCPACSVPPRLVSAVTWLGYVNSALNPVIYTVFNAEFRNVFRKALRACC
Procedure: Cells were grown in monolayer at 37° C. in 95% air/5% CO2 in Dulbecco's Modified Eagle Medium (DMEM) supplemented with 7.5% (v/v) heat-inactivated fetal bovine serum (FBS), 2.5% (v/v) heat-inactivated horse serum donor herd, 2% of a stock solution containing 5000 I.U./ml penicillin and 5000 μg/ml streptomycin, 1% (v/v) of a solution MEM containing non-essential amino acid, 2 mM glutamine ind 200 μg/ml geneticin. Cells were passaged twice a week using a trypsin/EDTA solution and the split rate was 1:4. Cells were not subcultured more than 17 times.
Preparation of cell membranes:
The cells grown to confluence were washed twice with Dulbecco's PBS buffer and were detached adding VERSENE (PBS containing 0.2 g/l EDTA) for 10 minutes at 37° C. The cell suspension was centrifuged at 1,000 rpm for 10 minutes and the pellet was harvested in DMEM with 10% DMSO and stored at -80° C. Before use, cells were thawed, centrifuged at 1,000 rpm for 10 minutes and the pellet was resuspended in PBS. The cells were centrifuged again at 270×g for 10 minutes at 4° C. and the pellet was resuspended in a lysis buffer (10 mM Tris-HCl pH 7.4, 5 mM Na2 EDTA and protease inhibitors) and incubated for 30 minutes on ice. Cells were homogenized with an Ultra Turrax homogenizer. Unbroken cells and nuclei were removed by an initial centrifugation at 270×g for 10 minutes at 4° C. and crude membranes were collected from the supernatant by a 60 minute spin at 130,000×g. The pelleted membranes were resuspended in the same lysis buffer with 20 strokes by a Potter homogenizer. The final cell membrane suspension, corresponding to about 1×10^7 original cells/ml, was aliquoted and immediately frozen at -80° C.
D4 receptor binding studies were carried out in membranes from CHO cells prepared as above. The membranes were dilute in incubation buffer (50 ml/ TRIS-HCl pH 7.4, 5 mM MgCl2·6H2 O, 5 mM KCl, 1.5 mM CaCl2·2H2 O, 5 mM EDTA) according to their receptor density.
Displacement experiment were performed in 1000 μl total volume incubating the membranes (980 μl) in the presence of [^3 H]-YM 09151-2 (10 μl; 0.15-0.25 nM) and different concentrations of the test compounds dissolved in DMISO (10 μl) at 27° C. for two hours. Nonspecific binding was determined in the presence of 10 μM of Clozapine (10 μl). The reaction was stopped by rapid filtration through Inotech IH 201 filters (pre-soaked in 0.1% polyethyleneimine) using an Inotech Cell Harvester. The radioactivity was counted by liquid scintillation spectrometry.
(§1) The affinity values (Ki) for the compounds were obtained by a nonlinear least squares regression analysis on the basis of a one binding site model. The values were corrected on the basis of the radioligand occupancy on the receptors according to the equation: Ki =IC50 /(1+[C]/Kd), where [C] and Kd represent the concentration and the dissociation constant of the used radioligands ([^3 H]-8-OH-DPAT for the 5-HT1A binding, [^3 H]-Ketanserine for the 5-HT2A binding and [^3 H]-YM 09151-2) for the D4 binding, respectively).

5-HT2A receptor = molecular target: T2, 5-HT2A receptor (Rattus norvegicus, UniProt P14842); experiment: 5-HT2A receptor binding, [3H]-Ketanserine displacement; conditions: rat cortex tissue, read-out: K1 (nM) for 5-HT2A (Rat cortex tissue)
T2 construct: Cerebral cortex was homogenized in 10 volumes of ice cold 0.32 M sucrose; from tissue; host or cells: rat cerebral cortex (male Sprague-Dawley)
T2 sequence (P14842 whole entry): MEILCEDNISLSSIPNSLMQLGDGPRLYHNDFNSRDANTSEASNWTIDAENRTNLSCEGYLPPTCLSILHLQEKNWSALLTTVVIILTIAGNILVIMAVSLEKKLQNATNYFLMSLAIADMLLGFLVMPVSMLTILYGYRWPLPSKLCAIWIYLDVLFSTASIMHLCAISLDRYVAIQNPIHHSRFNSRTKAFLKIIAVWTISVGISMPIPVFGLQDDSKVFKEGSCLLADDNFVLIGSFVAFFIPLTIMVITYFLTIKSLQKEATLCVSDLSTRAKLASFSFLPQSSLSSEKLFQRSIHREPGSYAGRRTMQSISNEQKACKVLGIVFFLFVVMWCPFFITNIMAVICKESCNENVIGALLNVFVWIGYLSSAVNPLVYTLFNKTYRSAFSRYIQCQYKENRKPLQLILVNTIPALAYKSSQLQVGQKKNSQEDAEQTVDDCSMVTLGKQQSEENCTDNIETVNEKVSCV
Procedure: Male Sprague-Dawley rats (200-250 g) were used. Cerebral cortex was homogenized in 10 volumes of ice cold 0.32 M sucrose. After the centrifugation of the homogenate (1,000×g for 10 minutes) the supernatant was then recentrifuged at 48,000×g for 15 minutes. The resulting pellet was suspended in 10 volumes of 50 mM TRIS buffer (pH 7.4), incubated at 37° C. for 10 minutes and recentrifuged at 48,000 × g for 15 minutes. The residue was then resuspended in 10 volumes of 50 mM TRIS buffer (pH 7.4).
The tissue was diluted 1:100 (w:v) in 50 mM TRIS buffer (pH 7.4) to have a final concentration of about 200 μg/ml. Displacement experiments were performed by incubating the homogenate (980 μl) in the presence of [^3 H]-Ketanserine (10 μl; 0.5-0.6 nM) and different concentrations of the test compounds dissolved in DMSO (10 μl) at 37° C. for 10 minutes (final volume: 1 ml). Nonspecific binding was determined in the presence of 100 μM Methysergide (10 μl). The reaction was stopped by rapid filtration through Inotech IH 201 filters using an Inotech Cell Harvester. The radioactivity was counted by liquid scintillation spectrometry.
as §1

5-HT1A receptor = molecular target: T3, 5-HT1A receptor (Rattus norvegicus, UniProt P19327); experiment: 5-HT1A receptor binding, [3H]-8-OH-DPAT displacement; conditions: rat hippocampus tissue, read-out: K1 (nM) for 5-HT1A (rat hippocampus tissue)
T3 construct: from tissue; host or cells: rat hippocampus (male Sprague-Dawley)
T3 sequence (P19327 1-422): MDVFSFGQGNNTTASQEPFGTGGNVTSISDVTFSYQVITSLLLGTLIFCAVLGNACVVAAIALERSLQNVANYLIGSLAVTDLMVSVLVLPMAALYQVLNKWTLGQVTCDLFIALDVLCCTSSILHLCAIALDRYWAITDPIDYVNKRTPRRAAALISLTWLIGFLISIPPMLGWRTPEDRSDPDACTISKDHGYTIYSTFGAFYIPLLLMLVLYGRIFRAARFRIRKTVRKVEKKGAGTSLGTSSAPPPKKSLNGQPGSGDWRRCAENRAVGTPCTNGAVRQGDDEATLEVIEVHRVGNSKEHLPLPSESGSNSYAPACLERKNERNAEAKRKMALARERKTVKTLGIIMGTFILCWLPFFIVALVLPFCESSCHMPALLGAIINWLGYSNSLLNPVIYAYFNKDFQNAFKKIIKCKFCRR
Procedure: Male Sprague-Dawley rats (200-250 g) were used. The hippocampus taken from these animals was homogenized in 10 volumes of ice cold 50 mM TIUS buffer (pH 7.4). The homogenate was diluted 1:400 (w:v) in the same buffer to have a final protein concentration of about 200 μg/ml, filtered and incubated at 37° C. for 10 minutes before use.
Displacement experiments were performed by incubating the homogenate (980 μl) in the presence of [^3 H]-8-OH-DPAT (10 μl; 1.0-1.2 nM) and different concentrations of the test compounds dissolved in DMSO (10 μl), at 30° C. for 15 minutes (final volume: 1 ml). Nonspecific binding was determined in the presence of 10 μM 5-HT (10 μl). The reaction was stopped by rapid filtration through Inotech IH 201 filters using an Inotech Cell Harvester. The radioactivity was counted by liquid scintillation spectrometry.
as §1

Compound | Ki (D4 receptor) [nM] | Ki (5-HT2A receptor) [nM] | Ki (5-HT1A receptor) [nM]
O=c1[nH]c2cc(O)ccc2n1CCN1CCN(c2cccc(C(F)(F)F)c2)CC1 [Compound 1, 5-Hydroxy-1-{2-[4-(3-trifluoromethylphenyl)piperazin-1-yl]ethyl}-1,3-dihydro-benzimidazol-2-one] | 287 | 58.5 | 40.8
O=c1[nH]c2ccc(O)cc2n1CCN1CCN(c2cccc(C(F)(F)F)c2)CC1 [Compound 2, 6-Hydroxy-1-{2-[4-(3-trifluoromethylphenyl)piperazin-1-yl]ethyl}-1,3-dihydro-benzimidazol-2-one] | 804 | 33.8 | 333
O=c1[nH]c2c(O)cccc2n1CCN1CCN(c2cccc(C(F)(F)F)c2)CC1 [Compound 3, 4-Hydroxy-1-{2-[4-(3-trifluoromethylphenyl)piperazin-1-yl]ethyl}-1,3-dihydro-benzimidazol-2-one] | 33.9 | 43.8 | 15.4
O=c1[nH]c2cccc(O)c2n1CCN1CCN(c2cccc(C(F)(F)F)c2)CC1 [Compound 4, 7-Hydroxy-1-{2-[4-(3-trifluoromethylphenyl)piperazin-1-yl]ethyl}-1,3-dihydro-benzimidazol-2-one] | 652 | 23.8 | 1590
O=c1[nH]c2ccccc2n1CCN1CCN(c2ccc(O)c(C(F)(F)F)c2)CC1 [Compound 5, 1-{2-[4-(4-Hydroxy-3-trifluoromethylphenyl)piperazin-1-yl]ethyl}-1,3-dihydro-benzimidazol-2-one] | 17.8 | 705 | 369
O=c1[nH]c2ccccc2n1CCN1CCN(c2cc(O)cc(C(F)(F)F)c2)CC1 [Compound 6, 1-{2-[4-(3-Hydroxy-5-trifluoromethylphenyl)piperazin-1-yl]ethyl}-1,3-dihydro-benzimidazol-2-one] | 24.8 | 328 | 156
O=c1[nH]c2ccccc2n1CCN1CCN(c2cc(C(F)(F)F)ccc2O)CC1 [Compound 7, 1-{2-[4-(2-Hydroxy-5-trifluoromethylphenyl)piperazin-1-yl]ethyl}-1,3-dihydro-benzimidazol-2-one] | – | 4440 | > 10000

Reference: patent US6281218A, “Benzimidazolone derivatives having mixed serotonin and dopamine receptors affinity” (Ingelheim Italia S.p.A., priority 1999, dated 2001)
